The values below come from PMC6271716, “Design, Synthesis and SAR Studies of NAD Analogues as Potent Inhibitors towards CD38 NADase” (Molecules, 2014).

The first assay concerns the target T1, CD38 NADase (Homo sapiens, UniProt P28907, N100D/N164D/N209D/N219D).
T1 construct: pPICZαA carrying the C-terminus of CD38 (AA46-300, with the four glycosylation sites mutated); made in house; host or cells: Pichia pastoris X33 (pPICZαA vector)
T1 sequence (P28907 46-300 N100D/N164D/N209D/N219D): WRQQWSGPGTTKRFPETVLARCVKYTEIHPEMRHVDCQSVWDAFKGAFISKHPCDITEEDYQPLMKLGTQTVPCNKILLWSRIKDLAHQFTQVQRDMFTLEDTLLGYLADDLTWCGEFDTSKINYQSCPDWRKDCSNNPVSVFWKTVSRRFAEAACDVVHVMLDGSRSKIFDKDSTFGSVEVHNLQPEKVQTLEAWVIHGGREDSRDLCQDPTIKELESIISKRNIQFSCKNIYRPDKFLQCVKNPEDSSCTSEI
Kind of assay: Enzyme activity assay: inhibition of the NAD-glycohydrolase (NADase) activity of recombinant CD38 (NAD cycling assay). To be noted: recombinant CD38 0.3 ng, 2 h preincubation at room temperature, NAD 2.5 µM. In kind it is biochemical. The procedure: Enzyme inhibition assays. The inhibitory activities to CD38 NADase of NAD analogues were evaluated by the method reported before. In this method, the inhibitions of NADase activities were calculated from the decrease of the NAD content.
Recombinant CD38, produced with a yeast expression system (Invitrogen, Carlsbad, CA, USA) was used to prepare the recombinant CD38 as reported previously. Briefly, pPICZαA carrying the C-terminus of CD38 (AA46-300, with the four glycosylation sites mutated, N100D, N164D, N209D and N219D) was transformed Pichia pastoris yeast, X33. The recombinant CD38 was induced by methanol and purified by phenylsepharose chromatography and cation exchange chromatography (SP column, GE Healthcare, Little Chalfont, UK). All the chemicals used in the enzymatic assays were purchased from Sigma (Santa Clara, CA, USA).
To study the inhibition of the NAD-glycohydrolase (NADase) activity of CD38 by the compounds, an enzymatic assay was performed. Briefly, different concentrations of the compound were mixed with recombinant CD38 (0.3 ng) and bovine serum albumin (1 µg) in a 16 µL-reaction mixture, then incubated in the dark for 2 hours at room temperature. NAD was added to the mixture to a final concentration of 2.5 µM to start the reaction. Aliquots (4 µL) of the reaction mixtures were withdrawn at 0, 4, 8 and 12 min, and the reaction was stopped by adding 4 µL of 0.6 M HCl, followed by neutralization with 8 µL of 0.5 M phosphate buffer, pH 8. The subsequent cycling reaction was conducted in 96-well plate with 16 µL of the sample mixed with 100 µL of the reagent containing 2% ethanol, 100 µg/mL alcohol dehydrogenase, 20 µM resazurin, 11 µg/mL diaphorase, 10 µM flavin mononucleotide and 100 mM sodium phosphate, pH 7. The cycling reaction was allowed to proceed for 10 min and the rate of fluorescence increase of resorufin (with excitation at 544 nm and emission at 590 nm) was measured using the Infinite M200 fluorescence plate reader (TECAN, Grödig, Austria). The relative NAD content was measured from the slope of fluorescence increase and the NAD-glycohydrolase activity was calculated from the decrease of NAD content at 0, 4, 8 and 12 min after the reaction started. As a control, each compound was directly added to the cycling reaction system with corresponding concentration to evaluate the potential interference to the cycling assay itself. IC50 values of inhibitors were calculated by the GraphPad Prism 5 software (GraphPad Software, Inc., La Jolla, CA, USA).
As to `C[C@@]1(F)[C@H](O)[C@@H](COP(=O)(O)CP(=O)(O)OC[C@H]2O[C@@H]([n+]3cccc(C(N)=O)c3)[C@](C)(F)[C@@H]2O)O[C@H]1[n+]1cccc(C(N)=O)c1` [Compound 22, Bis(2′-deoxy-2′-fluoro-2′-methyl-β-nicotinamide)-methylenediphosphonate], the “IC50, inhibitory activities of CD38 NADase” value is on record as “n.s”.

Still in this assay, the particulars now being: recombinant CD38 0.3 ng, 2 h preincubation at room temperature, NAD 2.5 µM; read-out: IC50, inhibitory activities of CD38 NADase.
With `CC1(F)C(O)C(COP(=O)([O-])OP(=O)(O)OCC2OC(n3cnc4c(N)ncnc43)C(O)C2O)OC1[n+]1cccc(C(N)=O)c1` (stereo not drawn) [Compound 7, 2′-Deoxy-2′-fluoro-2′-methyl-β-nicotinamide adenine dinucleotide], the IC50 (commonly the point on the concentration scale where inhibition reaches its midpoint) was determined as 1810 µM. As to `NC(=O)c1ccc[n+]([C@@H]2O[C@H](COP(=O)(O)O)[C@@H](O)[C@@H]2F)c1` [Compound 8, 2′-deoxy-2′-fluoroarabinosyl-β-nicotinamide mononucleotide, reference compound], the IC50 was 0.297 µM. For `NC(=O)c1ccc[n+](C2OC(CSP(=O)(O)OP(=O)([O-])OCC3OC(n4cnc5c(N)ncnc54)C(O)C3O)C(O)C2F)c1` (stereo not drawn) [Compound 10, 2′-Deoxy-2′-fluoro-5′-thio-phosphate-arabinofuranoside-β-nicotinamide adenine dinucleotide], the IC50 was 0.341 µM. As to `NC(=O)c1ccc[n+](C2OC(COP(=O)([O-])OP(=O)(O)OP(=O)(O)OCC3OC(n4cnc5c(N)ncnc54)C(O)C3O)C(O)C2F)c1` (stereo not drawn) [Compound 11, P^1-(Adenosine)-P^3-(2′-deoxy-2′-fluoro-β-nicotinamide arabinofuranoside) triphosphate], the IC50 was 1.15 µM. Still for that read-out and setting: the value for `NC(=O)c1ccc[n+](C2OC(COP(=O)([O-])OP(=O)(O)OCC3OC(n4cnc5c(=O)[nH]cnc54)C(O)C3O)C(O)C2F)c1` (stereo not drawn) [Compound 12, 2′-Deoxy-2′-fluoro-arabinosyl-β-nicotinamide hypoxanthine dinucleotide] was 0.109 µM; that for `NC(=O)c1ccc[n+](C2OC(COP(=O)([O-])OP(=O)(O)OCC3OC(n4cnc5c(=O)[nH]c(N)nc54)C(O)C3O)C(O)C2F)c1` (stereo not drawn) [Compound 13, 2′-Deoxy-2′-fluoro-arabinosyl-β-nicotinamide guanine dinucleotide] was 0.0893 µM.

Consider `COc1ncnc2c1ncn2C1OC(COP(=O)(O)OP(=O)([O-])OCC2OC([n+]3cccc(C(N)=O)c3)C(F)C2O)C(O)C1O` (stereo not drawn) [Compound 19, 2′-Deoxy-2′-fluoro-arabinosyl-β-nicotinamide 6-O-methyl-hypoxanthine dinucleotide], for which the IC50 amounted to 0.133 µM.

With `NC(=O)c1ccc[n+]([C@@H]2O[C@H](COP(=O)(O)OP(=O)(O)OC[C@H]3O[C@@H]([n+]4cccc(C(N)=O)c4)[C@@H](F)[C@@H]3O)[C@@H](O)[C@@H]2F)c1` [Compound 20, Bis(2′-deoxy-2′-fluoro-β-nicotinamide-arabinosyl) pyrophophate], the IC50 worked out at 0.575 µM. Consider `NC(=O)c1ccc[n+]([C@@H]2O[C@H](COP(=O)(O)CP(=O)(O)OC[C@H]3O[C@@H]([n+]4cccc(C(N)=O)c4)[C@@H](F)[C@@H]3O)[C@@H](O)[C@@H]2F)c1` [Compound 21, Bis(2′-deoxy-2′-fluoro-β-nicotinamide-arabinosyl)-methylenediphosphonate], for which the IC50 is 7.98 µM. Consider `NC(=O)c1ccc[n+]([C@@H]2O[C@H](COP(=O)([O-])OP(=O)(O)OC[C@H]3O[C@@H](n4cnc5c(N)ncnc54)[C@H](O)[C@@H]3O)[C@@H](O)[C@@H]2F)c1` [Compound 23, 2′-deoxy-2′-fluoroarabinosyl-β-nicotinamide adenine dinucleotide, reference compound], for which the IC50 was found to be 0.0611 µM.

The same assay, now with this note: recombinant CD38, NAD 2.5 µM.
`CC1(F)C(O)C(COP(=O)([O-])OP(=O)(O)OCC2OC(n3cnc4c(N)ncnc43)C(O)C2O)OC1[n+]1cccc(C(N)=O)c1` (stereo not drawn) [Compound 7, 2′-Deoxy-2′-fluoro-2′-methyl-β-nicotinamide adenine dinucleotide]: the “inhibition of CD38 NADase, in words” value is “weak inhibition”.
